In patent US20140088114A1, “FUSED BICYCLIC KINASE INHIBITORS” (OSI Pharmaceuticals ,LLC, priority 2011, published 2014):
Where two headings read alike, the source gives them in different places.

Tests used:
RON = molecular target: T1, RON (Homo sapiens, UniProt Q04912); experiment: sfRON cell mechanistic assay (HeLa), phosphorylated RON; assay type: cell-based
T1 construct: expressed in transfected cells; host or cells: HeLa
T1 sequence (Q04912 913-1400 limits assumed): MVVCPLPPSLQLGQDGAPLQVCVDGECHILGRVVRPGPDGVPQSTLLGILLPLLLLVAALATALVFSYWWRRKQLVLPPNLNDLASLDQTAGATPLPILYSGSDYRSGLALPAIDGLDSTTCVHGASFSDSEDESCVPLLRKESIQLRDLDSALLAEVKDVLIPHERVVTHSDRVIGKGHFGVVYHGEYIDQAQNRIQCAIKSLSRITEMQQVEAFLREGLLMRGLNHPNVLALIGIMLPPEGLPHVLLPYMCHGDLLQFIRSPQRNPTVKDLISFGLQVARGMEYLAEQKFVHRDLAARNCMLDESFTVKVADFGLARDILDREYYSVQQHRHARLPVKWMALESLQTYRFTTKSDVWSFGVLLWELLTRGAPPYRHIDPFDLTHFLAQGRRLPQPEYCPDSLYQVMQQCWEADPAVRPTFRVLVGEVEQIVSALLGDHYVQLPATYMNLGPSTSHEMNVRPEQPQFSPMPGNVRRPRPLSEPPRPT
Procedure: The cellular activity of the compounds of the present invention against RON may be determined by the following procedure. HeLa cells were plated in Falcon 3072 96-well plates in growth media (DMEM, 10% FBS, 1% L-glutamine) at a density of 10000 cells/well and incubated at 37° C., 5% CO2 overnight. The following day, cells were transfected with 0.2 μg sfRON-pcDNA plasmid DNA with 0.5 μL Lipofectamine2000 per well in the presence of 50 μL OPTI-MEM, incubated at 37° C., 5% CO2 overnight. Costar 3915 96-well assay plates were coated with rabbit Anti-RON antibody at 2.0 μg/mL, sealed, and incubated overnight at 4° C. On the third day, coated plates were washed with PBS and blocked with 3% BSA. For the sfRON transfected cells, one-tenth volume of a 10× concentration of compounds was added to the wells in a 6-point dilution series. The dilution series was composed of an initial 1:5 dilution of a 10 mM DMSO stock solution of compound in DMSO, followed by a 1:10 dilution in growth media, for a final DMSO concentration on cells of 0.5%. Control wells were treated with 0.5% DMSO. The typical range of dilution was 10 μM to 3 nM. Once compound was added to the cells, plates were incubated for four hours at 37° C., 5% CO2. Plates were then washed in PBS, and lysed in triton-based lysis buffer. Lysates were transferred to the blocked capture plates. The phosphorylated RON levels were measured by incubating with a Goat polyclonal antibody against phosphorylated RON ([pYpY1238/1239]) followed by an anti-Goat antibody conjugated to HRP. Signal was measured on a Wallac Victor plate reader with luminance. The DMSO signal of the control wells was defined as 100% and the percent of inhibition of phosphorylated RON was expressed as percent of control. IC50 values were determined from the percent of control data using a standard four-parameter model.
(§1) The IC50 values of exemplary compounds of the present invention determined in a sfRON cell mechanistic assay using the HeLa cell line according to the procedures described herein in at least duplicate experiments are abbreviated as follows and are shown in Table 3: A, IC50≦0.03 μM; B, 0.03 μM<IC50≦0.1 μM; C, 0.1 μM<IC50≦1 μM; D, 1 μM<IC50≦3 μM; ND, not determined. The Example # of Table 3 corresponds to the compound example number as illustrated in the Examples section.

c-MET = molecular target: T2, c-MET (Homo sapiens, UniProt P08581); experiment: MET cell mechanistic assay (MKN45), phosphorylated MET ELISA; assay type: cell-based; details: MKN45 cell line, 4 hours incubation, inhibition of phosphorylated MET, at least duplicate experiments; read-out: MET mech IC50
T2 construct: endogenous in cells; host or cells: MKN45
T2 sequence (P08581 25-1390): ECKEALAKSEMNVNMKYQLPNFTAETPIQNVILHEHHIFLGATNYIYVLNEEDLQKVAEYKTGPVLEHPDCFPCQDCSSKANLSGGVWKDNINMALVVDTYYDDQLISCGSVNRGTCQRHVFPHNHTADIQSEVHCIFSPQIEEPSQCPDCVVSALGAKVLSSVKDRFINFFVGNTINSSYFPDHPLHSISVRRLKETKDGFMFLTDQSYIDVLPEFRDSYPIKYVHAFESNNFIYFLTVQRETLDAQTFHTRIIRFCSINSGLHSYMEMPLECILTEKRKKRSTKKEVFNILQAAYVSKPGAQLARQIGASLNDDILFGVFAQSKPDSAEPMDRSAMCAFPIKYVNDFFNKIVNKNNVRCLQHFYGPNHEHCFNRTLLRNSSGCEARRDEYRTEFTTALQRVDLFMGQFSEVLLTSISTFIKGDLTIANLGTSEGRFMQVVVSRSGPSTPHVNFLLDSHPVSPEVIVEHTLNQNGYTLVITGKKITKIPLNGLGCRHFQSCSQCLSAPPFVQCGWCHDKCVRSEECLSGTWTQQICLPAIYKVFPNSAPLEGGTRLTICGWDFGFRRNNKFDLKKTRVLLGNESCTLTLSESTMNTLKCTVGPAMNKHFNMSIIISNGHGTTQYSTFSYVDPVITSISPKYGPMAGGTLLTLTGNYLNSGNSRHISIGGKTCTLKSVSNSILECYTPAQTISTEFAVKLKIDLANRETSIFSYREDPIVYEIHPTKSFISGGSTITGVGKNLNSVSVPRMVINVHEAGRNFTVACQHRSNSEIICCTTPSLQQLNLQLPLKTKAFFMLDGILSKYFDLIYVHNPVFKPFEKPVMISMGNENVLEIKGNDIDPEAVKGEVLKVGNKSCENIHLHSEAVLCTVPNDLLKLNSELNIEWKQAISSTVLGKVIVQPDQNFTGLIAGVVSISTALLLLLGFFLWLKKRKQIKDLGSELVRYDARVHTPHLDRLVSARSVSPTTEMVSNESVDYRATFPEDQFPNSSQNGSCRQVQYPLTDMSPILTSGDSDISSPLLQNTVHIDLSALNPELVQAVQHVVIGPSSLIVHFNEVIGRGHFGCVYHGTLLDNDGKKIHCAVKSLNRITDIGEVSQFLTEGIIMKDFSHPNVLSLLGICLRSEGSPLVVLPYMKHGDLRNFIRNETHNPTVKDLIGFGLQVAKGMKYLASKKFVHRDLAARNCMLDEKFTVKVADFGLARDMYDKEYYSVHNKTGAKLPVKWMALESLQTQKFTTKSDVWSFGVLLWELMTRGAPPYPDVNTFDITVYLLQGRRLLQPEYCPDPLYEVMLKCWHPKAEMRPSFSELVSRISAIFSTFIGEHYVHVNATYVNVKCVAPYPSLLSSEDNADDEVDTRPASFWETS
Procedure: The cellular activity of the compounds of the present invention against c-MET may be determined by the following procedure. MKN45 cells were plated in Falcon 3072 96-well plates in growth media (RPMI, 10% FBS, 1% L-glutamine) at a density of 5000 cells/well and incubated at 37° C., 5% CO2 overnight. The following day, one-tenth volume of a 10× concentration of compounds was added to the wells in a 6-point dilution series. The dilutions series was composed of an initial 1:5 dilution in DMSO, followed by a 1:10 dilution in growth media, for a final DMSO concentration on cells of 0.5%. Control wells were treated with 0.5% DMSO. The typical range of dilution was 10 μM to 3 nM. Once compound was added to the cells, plates were incubated for 4 hours at 37° C., 5% CO2. Plates were then washed in PBS, and lysed in triton-based lysis buffer. Lysates were transferred to a precoated capture plate made by Biosource (Cat #KHO0281). The phosphorylated MET levels were measured by incubating with a rabbit polyclonal antibody against phosphorylated MET ([pYpYpY1230/1234/1235]) followed by an anti-rabbit antibody conjugated to HRP. Signal was measured on a Wallac Victor plate reader at 450 nm. The DMSO signal of the control wells was defined as 100% and the percent of inhibition of phosphorylated MET was expressed as percent of control. IC50 values were determined from the percent of control data using a standard four-parameter model.
as §1, with “a MET” for “a sfRON”, “the MKN45” for “the HeLa”, “Table 1:” for “Table 3:”, “Table 1” for “Table 3”, “compound Example” for “compound example”, “section. […]” for “section.”

[1] = Table 6: comparison X = C1-3haloalkyl vs. X = C1-3alkyl, read-out: sfRON cell mechanistic
[2] = sfRON transfected HeLa cells, four hours incubation, inhibition of phosphorylated RON, at least duplicate experiments, read-out: sfRON mech IC50

| SMILES | IC50 (RON; [1]) | IC50 (RON; [2]) | IC50 (c-MET) |
| --- | --- | --- | --- |
| Cn1cc(-c2cnc3[nH]cc(C(CF)c4c(Cl)ccc(F)c4Cl)c3c2)cn1 (centres unmarked) [Example 1, 3-[1-(2,6-Dichloro-3-fluorophenyl)-2-fluoroethyl]-5-(1-methyl-1H-pyrazol-4-yl)-1H-pyrrolo[2,3-b]pyridine] | 100 to 1000 nM | 100 to 1000 nM | – |
| O[C@H]1CC[C@H](n2cc(-c3cnc4[nH]cc([C@H](CF)c5c(OC(F)F)ccc(F)c5Cl)c4c3)cn2)CC1 [Example 5, trans-4-[4-(3-{(1S)-1-[2-Chloro-6-(difluoromethoxy)-3-fluorophenyl]-2-fluoroethyl}-1H-pyrrolo[2,3-b]pyridin-5-yl)-1H-pyrazol-1-yl]cyclohexanol] | ≤ 30 nM | ≤ 30 nM | ≤ 30 nM |
| O[C@H]1CC[C@H](n2cc(-c3cnc4[nH]cc([C@@H](CF)c5c(OC(F)F)ccc(F)c5Cl)c4c3)cn2)CC1 [Example 4, trans-4-[4-(3-{(1R)-1-[2-Chloro-6-(difluoromethoxy)-3-fluorophenyl]-2-fluoroethyl}-1H-pyrrolo[2,3-b]pyridin-5-yl)-1H-pyrazol-1-yl]cyclohexanol] | 30 to 100 nM | 30 to 100 nM | 100 to 1000 nM |
| COc1ccc(F)c(Cl)c1[C@@H](CF)c1c[nH]c2ncc(-c3cnn([C@H]4CC[C@H](O)CC4)c3)cc12 [Example 3, trans-4-(4-{3-[(1S)-1-(2-chloro-3-fluoro-6-methoxyphenyl)-2-fluoroethyl]-1H-pyrrolo[2,3-b]pyridin-5-yl}-1H-pyrazol-1-yl)cyclohexanol] | 30 to 100 nM | 30 to 100 nM | ≤ 30 nM |
